Data as given in patent US4260601A, “Chemical compounds” (Nyegaard & Co. A/S, priority 1979, dated 1981).
Square brackets hold non-standard residues; d marks the D form. Peptide text beside a SMILES is read from it. pGlu = O=C1CC[C@@H](C(=O)O)N1

Assay: anorexigenic / biological activity of the peptide (no method described)

O=C(O)CNC(=O)[C@H](Cc1c[nH]cn1)NC(=O)[C@@H]1CCC(=O)N1 [synthetic peptide, L-(pyro)glutamyl-L-histidyl-glycine] ([pGlu]-His-Gly-OH)
biological activity of the synthetic peptide versus the biogenic material isolated from urine (comparison with biogenic material isolated from urine): comparable biological activity | anorexigenic properties (statement in words, peptide found in the urine of patients suffering from severe anorexia): possesses interesting anorexigenic properties
